Results published in PMC6833214, “Isolation of bioactive compounds from Bergenia ciliata (haw.) Sternb rhizome and their antioxidant and anticholinesterase activities” (BMC Complementary and Alternative Medicine, 2019).
Where two headings read alike, the source gives them in different places.

Legend:
[1] = DPPH free radical scavenging assay
Method: The free radical scavenging abilities of the extracts were determined using 2,2- Diphenyl-1-picrylhydrazyl (DPPH) assay modified by Brand-Williams et al. with some modification. In oxidized form of DPPH have deep violet color. On getting electrons from antioxidants the deep violet color changes to yellow color. DPPH solution was prepared by dissolving 20 mg in 100 ml methanol (stock solution). From this solution 3 ml were taken and its absorbance was adjusted to 0.75 at 515 nm (control solution). For the formation of free radical, the stock DPPH solution was covered with aluminum foil and kept in dark place for 24 h. For the preparation of stock solutions, 5 mg of each extracts were dissolved in 5 ml of methanol (5000 μg/5 ml). Different dilution (1000, 500, 250, 125 and 62.5 μg/ml) were prepared from stock solutions through serial dilution. About 2 ml from each dilution were mixed with 2 ml of DPPH solution and incubated for 15 min in darkness. The percentage inhibition of DPPH free radical by extracts was calculated using the following formula: 1 %inhibition=A−B/AX100
Where A is the absorbance of DPPH in oxidized state and B is the absorbance of mixture after 15 min of reaction. Ascorbic acid was used as standard antioxidant.

[2] = ABTS free radical scavenging assay
Method: These two solutions were mixed thoroughly and kept in dark overnight for the formation of free radical. About 3 ml were taken from this stock solution and its absorbance was adjusted to 0.76 at 745 nm (control solution). About 300 μl of test samples were mixed with 3 ml of ABTS solution and incubated for 15 min at 25 °C. The absorbance of the mixture was measured using a double beam spectrophotometer at 745 nm. The same procedure was followed for the preparation of different dilution of ascorbic acid (positive control). The data was recorded in triplicate and percent ABTS free radicals scavenging activities were calculated using Eq. 1.

[3] = molecular target: T1, acetyl cholinesterase from Electric eel (type-VI-S) (Electrophorus electricus, UniProt O42275); assay: biochemical; conditions: isolated compounds, Table 6; for inhibition at 125 µg/mL: 125 μg/mL; for inhibition at 125 µg/mL / inhibition at 250 µg/mL / inhibition at 500 µg/mL / inhibition at 1000 µg/mL: read-out: AChE percent inhibition (mean ± S.E.M); for inhibition at 250 µg/mL: 250 μg/mL; for inhibition at 500 µg/mL: 500 μg/mL; for inhibition at 1000 µg/mL: 1000 μg/mL; for IC50: read-out: AChE IC50 (converted)
T1 construct: purchased Sigma-Aldrich USA type-VI-S
T1 sequence (O42275 24-633): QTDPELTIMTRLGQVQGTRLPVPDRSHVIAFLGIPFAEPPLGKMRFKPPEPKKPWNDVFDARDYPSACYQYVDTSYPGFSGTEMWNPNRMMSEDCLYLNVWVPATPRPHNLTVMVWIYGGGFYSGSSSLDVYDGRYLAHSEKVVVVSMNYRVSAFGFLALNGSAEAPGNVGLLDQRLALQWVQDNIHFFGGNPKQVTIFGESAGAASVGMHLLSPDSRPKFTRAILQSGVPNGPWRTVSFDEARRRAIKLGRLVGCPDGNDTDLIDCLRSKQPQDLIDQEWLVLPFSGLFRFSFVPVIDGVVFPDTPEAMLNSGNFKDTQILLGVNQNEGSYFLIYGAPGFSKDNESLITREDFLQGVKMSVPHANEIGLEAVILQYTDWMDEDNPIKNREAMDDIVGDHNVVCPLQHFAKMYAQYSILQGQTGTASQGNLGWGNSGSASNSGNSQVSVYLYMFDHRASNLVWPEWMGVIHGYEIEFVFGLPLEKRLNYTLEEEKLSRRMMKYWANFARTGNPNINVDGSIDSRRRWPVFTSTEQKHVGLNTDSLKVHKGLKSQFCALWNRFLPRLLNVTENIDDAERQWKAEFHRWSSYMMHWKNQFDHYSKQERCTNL

[4] = molecular target: T2, butyryl cholinesterase from equine (Equus caballus, UniProt P81908); assay: Butyrylcholinesterase inhibition (Ellman's assay); format: biochemical; conditions: for inhibition at 125 µg/mL: 125 μg/mL; for inhibition at 1000 µg/mL: 1000 μg/mL
T2 construct: purchased Sigma-Aldrich USA
T2 sequence (P81908 whole entry): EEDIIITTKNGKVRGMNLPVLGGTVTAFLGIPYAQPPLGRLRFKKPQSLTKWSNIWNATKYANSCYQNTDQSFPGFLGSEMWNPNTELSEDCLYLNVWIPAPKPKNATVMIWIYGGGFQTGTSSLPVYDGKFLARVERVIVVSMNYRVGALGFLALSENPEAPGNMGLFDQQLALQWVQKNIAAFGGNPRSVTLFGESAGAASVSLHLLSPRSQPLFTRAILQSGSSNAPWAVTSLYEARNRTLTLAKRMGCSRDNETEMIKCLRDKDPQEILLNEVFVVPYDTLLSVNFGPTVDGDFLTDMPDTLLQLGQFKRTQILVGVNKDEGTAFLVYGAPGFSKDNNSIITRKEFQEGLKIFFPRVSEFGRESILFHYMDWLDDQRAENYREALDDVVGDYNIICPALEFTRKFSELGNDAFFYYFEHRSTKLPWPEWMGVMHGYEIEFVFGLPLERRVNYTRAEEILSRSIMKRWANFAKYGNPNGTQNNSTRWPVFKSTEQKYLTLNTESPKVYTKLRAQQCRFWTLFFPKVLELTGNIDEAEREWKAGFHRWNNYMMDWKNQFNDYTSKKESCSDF
Method: Acetyl cholinesterase (AChE) and butyryl cholinesterase (BChE) were used to evaluate the enzyme inhibitory potential of Bergenia ciliata rhizome extracts and isolated compounds using Ellman’s assay [18]. The mentioned enzymes when act on their respective substrates acetylthiocholine iodide and butyrylthiocholine iodide hydrolyze them which then on complexation with 5-thio-2-nitrobenzoate anion formed from DTNB give yellow color. The color change is recorded after 15 min by spectrophotometer. Phosphate buffer (pH = 8) was prepared by mixing 1.36 g/100 mL, potassium dihydrogen phosphate and 1.74 g/100 mL di-potassium hydrogen phosphate (6 and 94% respectively). The AChE solution was prepared by dissolving 0.5 mg of enzyme in 0.5 ml of phosphate buffer to get 1000 unit/ml and BChE solution was also prepared by dissolving 1 mg in 1 ml of phosphate buffer to get 10 unit/ml. These two solutions were further diluted by phosphate buffer till a final concentration of 0.03 unit/ml and 0.1 unit/ml respectively. DTNB solution (0.0002 M) and ATChI and BTChI (0.0005 M) were prepared and kept in reagent bottles in refrigerator before use.
To each test tube, 100 μl of enzyme and DTNB solutions were added and incubated for 15 min at 25 °C. After this 100 μl substrates (AChEI, BChEI) were added to each test tube and allowed to stand for 15 min. The absorbance of mixtures were recorded at 412 nm. A negative control was prepared by mixing all the above mention components except plant extracts. […] For each sample absorption was recorded for 4 minutes. Percent activities of enzyme and percent inhibition were calculated using following relations. 2 V=∆Abs/∆T 3 %enzyme activity=V/Vmaxx100
Where V is the rate of reaction in the presence of inhibitor and Vmax is the rate of reaction without inhibitor.

[5] = 62.5 μg/mL, isolated compounds, Table 5
[6] = 125 μg/mL, isolated compounds, Table 5
[7] = 250 μg/mL, isolated compounds, Table 5
[8] = 500 μg/mL, isolated compounds, Table 5
[9] = 1000 μg/mL, isolated compounds, Table 5
[10] = isolated compounds, Table 6, read-out: BChE percent inhibition (mean ± S.E.M)
[11] = 250 μg/mL, isolated compounds, Table 6, read-out: BChE percent inhibition (mean ± S.E.M)
[12] = 500 μg/mL, isolated compounds, Table 6, read-out: BChE percent inhibition (mean ± S.E.M)
[13] = isolated compounds, Table 6, read-out: BChE IC50 (converted)

| SMILES | DPPH percent inhibition (mean ± S.E.M) [1, 5] | DPPH percent inhibition (mean ± S.E.M) [1, 6] | DPPH percent inhibition (mean ± S.E.M) [1, 7] | DPPH percent inhibition (mean ± S.E.M) [1, 8] | DPPH percent inhibition (mean ± S.E.M) [1, 9] | DPPH IC50 ([1]; isolated compounds, Table 5) [µg/mL] | ABTS percent inhibition (mean ± S.E.M) [2, 5] [%] | ABTS percent inhibition (mean ± S.E.M) [2, 6] [%] | ABTS percent inhibition (mean ± S.E.M) [2, 7] | ABTS percent inhibition (mean ± S.E.M) [2, 8] | ABTS percent inhibition (mean ± S.E.M) [2, 9] | ABTS IC50 ([2]; isolated compounds, Table 5) [µg/mL] | inhibition at 125 µg/mL [3] [%] | inhibition at 250 µg/mL [3] [%] | inhibition at 500 µg/mL [3] [%] | inhibition at 1000 µg/mL [3] [%] | inhibition at 125 µg/mL [4, 10] [%] | inhibition at 250 µg/mL [4, 11] [%] | inhibition at 500 µg/mL [4, 12] [%] | inhibition at 1000 µg/mL [4, 10] [%] | other results |
| --- | --- | --- | --- | --- | --- | --- | --- | --- | --- | --- | --- | --- | --- | --- | --- | --- | --- | --- | --- | --- | --- |
| C[C@@H]1O[C@@H](OC[C@H]2O[C@@H](Oc3c(-c4ccc(O)c(O)c4)oc4cc(O)cc(O)c4c3=O)[C@H](O)[C@@H](O)[C@@H]2O)[C@H](O)[C@H](O)[C@H]1O [Rutin, 3,3,4,5,7-pentadroxyflavones-3-rutinoside] | 35.38 ± 2.28 % | 46.63 ± 1.17 % | 57.47 ± 0.93 % | 68.43 ± 1.40 % | 80.90 ± 1.27 % | 150 | 29.75 ± 2.18 | 44.30 ± 0.79 | 57.56 ± 1.42 % | 69.05 ± 0.64 % | 78.33 ± 0.63 % | 183 | 48.1 ± 0.64 | 60.2 ± 2.35 | 66.72 ± 0.62 | 75.1 ± 1.41 | 45 ± 3.79 | 56.7 ± 0.7 | 62.5 ± 1.72 | 72 ± 0.86 | IC50 [3]: 193 µM; IC50 ([4]; BChE IC50, isolated compounds, Table 6): 282 µM |
| O=C1O[C@H]([C@@H](O)CO)C(O)=C1O [Ascorbic acid, reference compound] | 53.78 ± 0.76% | 62.90 ± 0.85% | 71.34 ± 2.16% | 80.45 ± 0.96% | 92.67 ± 0.73% | 50 | 50.88 ± 0.32 | 58.90 ± 0.48 | 68.93 ± 0.45% | 80.29 ± 0.79% | 89.94 ± 0.86% | 62 | – | – | – | – | – | – | – | – | DPPH percent inhibition (mean ± S.E.M) ([1]; 62.5 μg/mL, extracts, Table 2): 52.88 ± 0.32%; DPPH percent inhibition (mean ± S.E.M) ([1]; 125 μg/mL, extracts, Table 2): 62.90 ± 0.48%; DPPH percent inhibition (mean ± S.E.M) ([1]; 250 μg/mL, extracts, Table 2): 71.93 ± 0.45%; DPPH percent inhibition (mean ± S.E.M) ([1]; 500 μg/mL, extracts, Table 2): 80.29 ± 0.79%; DPPH percent inhibition (mean ± S.E.M) ([1]; 1000 μg/mL, extracts, Table 2): 92.94 ± 0.86%; DPPH IC50 ([1]; extracts, Table 2): 50 µg/mL; ABTS percent inhibition (mean ± S.E.M) ([2]; 62.5 μg/mL, extracts, Table 2): 49.78 ± 0.76%; ABTS percent inhibition (mean ± S.E.M) ([2]; 125 μg/mL, extracts, Table 2): 58.90 ± 0.85%; ABTS percent inhibition (mean ± S.E.M) ([2]; 250 μg/mL, extracts, Table 2): 68.34 ± 2.16%; ABTS percent inhibition (mean ± S.E.M) ([2]; 500 μg/mL, extracts, Table 2): 80.45 ± 0.96%; ABTS percent inhibition (mean ± S.E.M) ([2]; 1000 μg/mL, extracts, Table 2): 89.67 ± 0.73%; ABTS IC50 ([2]; extracts, Table 2): 64 µg/mL |
| O=c1c(O)c(-c2ccc(O)cc2O)oc2cc(O)cc(O)c12 [Morin, 2-(2,4-Dihydroxyphenyl)-3,5,7-trihydroxychromen-4-one] | 40.85 ± 0.94 % | 48.72 ± 1.11 ^ns % | 60.25 ± 2.28 % | 72.72 ± 1.56 % | 83.93 ± 0.72 % | 105 | 30.50 ± 1.43 | 44.15 ± 0.56 | 58.04 ± 2.44 % | 70.67 ± 1.02 % | 80.86 ± 1.09 % | 145 | 56.3 ± 1.45 | 68.8 ± 0.8 | 77.2 ± 0.91 | 85.5 ± 3.19 | 51.1 ± 0.56 | 60.51 ± 0.5 | 68.4 ± 2.22 | 80.46 ± 0.76 | IC50 [3]: 212 µM; IC50 [4, 13]: 384 µM |
| COc1ccc2c3c1O[C@H]1C[C@@H](O)C=C[C@@]31CCN(C)C2 [Galanthamine, reference compound] | – | – | – | – | – | – | – | – | – | – | – | – | – | – | – | – | 62.43 ± 0.39 | 71.8 ± 0.48 | 86.51 ± 0.77 | 92.26 ± 0.92 | inhibition at 250 µg/mL ([4]; 250 μg/ml, extracts, Table 3, read-out: Percent BChE (mean ± SEM) inhibition): 76.72 ± 0.72%; inhibition at 500 µg/mL ([4]; 500 μg/ml, extracts, Table 3, read-out: Percent BChE (mean ± SEM) inhibition): 84.7 ± 1.2% |
| Oc1cccc(O)c1O [Pyrogallol, Benzene-1,2,3-triol] | 48.72 ± 0.89 ^ns % | 59.93 ± 2.18 ^ns % | 70.30 ± 1.05 ^ns % | 81.64 ± 1.33 ^ns % | 89.35 ± 0.92 ^ns % | 68 | 39.60 ± 1.39 | 53.26 ± 1.62 | 66.42 ± 0.90 ^ns % | 77.81 ± 1.09 ^ns % | 87.02 ± 0.81 ^ns % | 85 | 66.2 ± 2.14 | 80.12 ± 0.62 | 87.4 ± 1.51 | 94.35 ± 0.72 | 58.3 ± 0.93 | 71.2 ± 1.38 | 80.35 ± 0.3 | 92 ± 1.89 | IC50 [3]: 222 µM; IC50 [4, 13]: 555 µM |
